This note sets out measurements from PMC9276577, “SIRT1 pharmacological activation rescues vascular dysfunction and prevents thrombosis in MTHFR deficiency” (Cellular and Molecular Life Sciences: CMLS, 2022).

Assay [1] concerns the target T1, SIRT1 (Homo sapiens, UniProt Q96EB6).
T1 sequence (Q96EB6 2-747): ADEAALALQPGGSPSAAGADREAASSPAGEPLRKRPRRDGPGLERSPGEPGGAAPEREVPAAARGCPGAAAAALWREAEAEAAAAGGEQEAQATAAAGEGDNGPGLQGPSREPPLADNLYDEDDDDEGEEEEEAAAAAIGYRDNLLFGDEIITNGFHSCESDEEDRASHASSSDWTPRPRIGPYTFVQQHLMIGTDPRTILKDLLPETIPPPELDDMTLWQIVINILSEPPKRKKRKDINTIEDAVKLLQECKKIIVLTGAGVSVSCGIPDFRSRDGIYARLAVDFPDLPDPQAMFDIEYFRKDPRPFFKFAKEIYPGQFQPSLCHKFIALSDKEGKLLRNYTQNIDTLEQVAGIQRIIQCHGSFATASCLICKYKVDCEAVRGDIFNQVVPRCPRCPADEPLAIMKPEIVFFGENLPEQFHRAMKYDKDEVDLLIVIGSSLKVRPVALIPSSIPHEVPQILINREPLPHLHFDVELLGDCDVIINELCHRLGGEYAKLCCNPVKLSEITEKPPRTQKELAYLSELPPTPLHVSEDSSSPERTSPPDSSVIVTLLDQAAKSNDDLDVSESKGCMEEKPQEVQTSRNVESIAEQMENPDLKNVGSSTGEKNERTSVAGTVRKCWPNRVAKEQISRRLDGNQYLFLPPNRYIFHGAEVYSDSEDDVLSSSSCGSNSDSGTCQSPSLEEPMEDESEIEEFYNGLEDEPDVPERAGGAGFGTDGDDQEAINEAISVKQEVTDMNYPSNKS
As to the kind of experiment: CETSA in MCF7 cells (Tm raised from […] °C to […] °C). Format: cell-based. Also on record: endogenous SIRT1 in MCF7 cells.

Assay [2] addresses T1, SIRT1. As to the kind of experiment: NMase-coupled fluorescence deacetylase assay (activation, AC50) on purified SIRT1; binding supported by tyrosine fluorescence quenching and CETSA in MCF7 cells. Also on record: SIRT1-GST purified from E. coli BL21 (full-length SIRT1 after thrombin cleavage for fluorescence quenching). The note with it: read-out: EC50 (the source's name). Format: biochemical.

In the case of `Oc1ccc(/C=C/c2cc(O)cc(O)c2)cc1` [RSV, resveratrol], at SIRT1 [1], the “CETSA in MCF7 cells (Tm raised from 46.5 °C to 51.4 °C)” value was found to be 51.4 °C.
For the molecule ISIDE11, the AC50 on SIRT1 [2] was determined as 20.11 ± 0.15 µM.
